Among the data in ChEMBL document CHEMBL3039007, “Structure-based identification of OATP1B1/3 inhibitors” (Mol Pharmacol, 2013) are residual activity values, retold here.

Data set [1] concerns the target T1, Solute carrier organic anion transporter family member 1B3 (Homo sapiens, UniProt Q9NPD5).
T1 sequence (Q9NPD5 whole entry): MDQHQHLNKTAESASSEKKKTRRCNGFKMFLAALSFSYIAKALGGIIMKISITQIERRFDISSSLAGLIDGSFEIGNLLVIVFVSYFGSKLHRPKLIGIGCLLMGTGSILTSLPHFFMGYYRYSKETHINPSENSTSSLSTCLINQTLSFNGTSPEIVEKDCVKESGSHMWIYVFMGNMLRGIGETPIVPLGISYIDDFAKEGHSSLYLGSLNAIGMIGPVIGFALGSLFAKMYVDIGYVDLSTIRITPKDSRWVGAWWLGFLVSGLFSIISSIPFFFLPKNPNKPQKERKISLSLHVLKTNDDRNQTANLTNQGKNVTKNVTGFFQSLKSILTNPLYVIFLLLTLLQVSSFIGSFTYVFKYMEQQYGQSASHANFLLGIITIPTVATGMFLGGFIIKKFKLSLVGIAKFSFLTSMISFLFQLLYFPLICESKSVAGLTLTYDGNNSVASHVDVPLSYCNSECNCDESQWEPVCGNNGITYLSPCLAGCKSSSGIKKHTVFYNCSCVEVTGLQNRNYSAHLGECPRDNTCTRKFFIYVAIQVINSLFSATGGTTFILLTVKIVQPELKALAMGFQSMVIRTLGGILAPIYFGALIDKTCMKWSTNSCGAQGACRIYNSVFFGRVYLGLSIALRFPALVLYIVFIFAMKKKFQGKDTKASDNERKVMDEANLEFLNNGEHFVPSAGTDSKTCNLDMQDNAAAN
As to conditions: chinese hamster, cho, 10 µM.

For data set [2], the target named is T2, Solute carrier organic anion transporter family member 1B1 (Homo sapiens, UniProt Q9Y6L6).
T2 sequence (Q9Y6L6 whole entry): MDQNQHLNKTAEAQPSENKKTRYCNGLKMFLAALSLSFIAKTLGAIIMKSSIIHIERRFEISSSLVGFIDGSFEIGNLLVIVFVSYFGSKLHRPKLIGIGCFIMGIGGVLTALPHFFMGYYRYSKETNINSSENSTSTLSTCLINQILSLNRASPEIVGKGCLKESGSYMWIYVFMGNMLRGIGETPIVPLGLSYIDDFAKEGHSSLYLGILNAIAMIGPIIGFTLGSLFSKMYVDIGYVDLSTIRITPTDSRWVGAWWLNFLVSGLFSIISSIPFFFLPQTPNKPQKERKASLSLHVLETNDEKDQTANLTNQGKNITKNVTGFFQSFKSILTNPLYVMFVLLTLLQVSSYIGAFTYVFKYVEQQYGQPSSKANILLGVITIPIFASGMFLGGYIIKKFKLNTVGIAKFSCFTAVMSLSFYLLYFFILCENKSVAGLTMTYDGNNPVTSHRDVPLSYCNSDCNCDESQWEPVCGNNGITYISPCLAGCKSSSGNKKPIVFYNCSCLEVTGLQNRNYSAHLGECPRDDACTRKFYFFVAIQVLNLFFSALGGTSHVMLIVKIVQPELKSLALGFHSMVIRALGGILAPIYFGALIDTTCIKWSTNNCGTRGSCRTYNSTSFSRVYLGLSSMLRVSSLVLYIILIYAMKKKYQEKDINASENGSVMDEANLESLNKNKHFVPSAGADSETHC
The settings on record: chinese hamster, cho, 10 µM.

Take `CO/N=C1\CN(c2nc3c(cc2F)c(=O)c(C(=O)O)cn3C2CC2)CC1CN.CS(=O)(=O)O` (stereo not given) [GEMIFLOXACIN MESYLATE]: the residual activity is listed as 108.8% in data set [1] and 102.7% in data set [2].

With `CN[C@@H]1[C@@H](O)[C@@H](O[C@@H]2[C@@H](O)[C@H](O[C@H]3O[C@H]([C@@H](C)O)[C@@H](O)[C@H](O)[C@H]3N)[C@@H](N)C[C@H]2N)OC[C@]1(C)O` [GENETICIN], the residual activity in data set [1] came to 105.6%; in data set [2] it was 83.57%.

`COc1cc(O)c2c(=O)cc(-c3ccc(O)cc3)oc2c1` [GENKWANIN]: the residual activity in data set [1] is given as 107%; in data set [2] it was 116.7%.

Take `CN(C)c1ccc(C(=C2C=CC(=[N+](C)C)C=C2)c2ccc(N(C)C)cc2)cc1.[Cl-]` [GENTIAN VIOLET]: the residual activity is 92.5% in data set [1] and 109.6% in data set [2].

Consider `O=C(O)c1cc(O)ccc1O` [GENTISIC ACID], for which the results for the residual activity in data set [1] and in data set [2] were 104% and 84.57%, respectively.

Regarding `CCCCCC/C=C\CCCCCCCc1cccc(O)c1C(=O)O` [GINGKOLIC ACID], the figures for the residual activity in data set [1] and in data set [2] were 93.22% and 135.9%, respectively.

Turning to `COc1cc(O)c2c(=O)cc(-c3ccc(OC)c(-c4c(O)cc(O)c5c(=O)cc(-c6ccc([O-])cc6)oc45)c3)oc2c1.[K+]` [GINKGETIN, K salt], the residual activity in data set [1] is given as 46.72%; in data set [2], 46.45%.

For the compound `C[C@@H]1C(=O)O[C@H]2C[C@@]34[C@H]5C[C@@H](C(C)(C)C)[C@]36[C@@H](OC(=O)[C@@H]6O)O[C@@]4(C(=O)O5)[C@]21O` [GINKGOLIDE A], the values for the residual activity in data set [1] and in data set [2] were 113.8% and 103.7%, respectively.

`CC(=O)O[C@H]1CC[C@@]2(C)[C@H](CC[C@@H]3[C@@H]2CC[C@]2(C)[C@@H](C4=CC(=O)OC4)[C@@H](OC(C)=O)C[C@]32O)C1` [GITOXIGENIN DIACETATE]: the residual activity stood at 118.5% in data set [1] and 111.6% in data set [2].

On to `C[C@H]1O[C@@H](O[C@H]2[C@@H](O)C[C@H](O[C@H]3[C@@H](O)C[C@H](O[C@H]4CC[C@@]5(C)[C@H](CC[C@@H]6[C@@H]5CC[C@]5(C)[C@@H](C7=CC(=O)OC7)[C@@H](O)C[C@]65O)C4)O[C@@H]3C)O[C@@H]2C)C[C@H](O)[C@@H]1O` [GITOXIN], for which the figures for the residual activity in data set [1] and in data set [2] were 102.2% and 103.4%, respectively.

On to `O=C(OCC(O)CO)c1ccccc1Nc1ccnc2cc(Cl)ccc12` (stereo not given) [GLAFENINE], for which the residual activity came out at 130.7% in data set [1] and 188.5% in data set [2].

`Cc1ccc(S(=O)(=O)NC(=O)NN2CC3CCCC3C2)cc1` (stereo not given) [GLICLAZIDE]: the residual activity in data set [1] was 113.3%; in data set [2], 106.3%.

On to `OC[C@@H](O)[C@@H](O[C@@H]1O[C@H](CO)[C@@H](O)[C@H](O)[C@H]1O)[C@H](O)[C@@H](O)CO` [GLUCITOL-4-GUCOPYANOSIDE], for which the residual activity in data set [1] was 90.65%; in data set [2], 90.99%.

For the compound `O=C1O[C@H](CO)[C@@H](O)[C@H](O)[C@H]1O` [GLUCONOLACTONE], the residual activity in data set [1] is reported as 89.12%; in data set [2], 81.83%.

`Cl.N[C@H]1C(O)O[C@H](CO)[C@@H](O)[C@@H]1O` (stereo not given in full) [GLUCOSAMINE HYDROCHLORIDE]: the residual activity in data set [1] amounted to 87.62%; in data set [2] it was 60.72%.

As for `N[C@@H](CCC(=O)N[C@@H](CS)C(=O)NCC(=O)O)C(=O)O` [GLUTATHIONE], the residual activity in data set [1] was determined as 87.82%; in data set [2] it was 67.16%.

Turning to `CC(=O)O[C@@H]1[C@H]2CC[C@H]3[C@@](C)(O)[C@@H]4C[C@H](O)C(C)(C)[C@@]4(O)[C@H](O)C[C@@]13C[C@@]2(C)O` [GRAYANOTOXIN I], the residual activity stood at 95.98% in data set [1] and 79.68% in data set [2].

As for `COC1=CC(=O)C[C@@H](C)[C@]12Oc1c(Cl)c(OC)cc(OC)c1C2=O` [GRISEOFULVIN], the residual activity in data set [1] amounted to 97.62%; in data set [2] it was 65.59%.

With `Cc1ccc(C(C)C)cc2c(C)ccc1-2` [GUAIAZULEN], the values for the residual activity in data set [1] and in data set [2] were 50.28% and 49.11%, respectively.

As for `CC(=O)O.N=C(N)N/N=C/c1c(Cl)cccc1Cl` [GUANABENZ ACETATE], the residual activity in data set [1] is listed as 87.6%; in data set [2], 90.81%.

`N=C(N)N` [GUANIDINE]: the residual activity in data set [1] turned out to be 100%; in data set [2], 106.5%.

Take `COP(=S)(OC)SCn1nnc2ccccc2c1=O` [GUTHION]: the residual activity is on record as 101.8% in data set [1] and 109.1% in data set [2].

For the compound `Cl.O=C(O)C1=CCCNC1` [GUVACINE HYDROCHLORIDE], the figures for the residual activity in data set [1] and in data set [2] were 108.7% and 115%, respectively.

Regarding `Cc1cc(O)c(C=O)c(O)c1C(=O)O` [HAEMATOMMIC ACID], the residual activity in data set [1] worked out at 81.5%; in data set [2], 54.98%.

Turning to `COc1cc2c(cc1OC)C(=O)c1ccc(OC)c(OC)c1OCC(=O)C2` [HAEMATOXYLONE, TETRAMETHYL-], the residual activity in data set [1] is given as 90.54%; in data set [2] it was 141.3%.

`O=C(O)c1ccc(S(=O)(=O)N(Cl)Cl)cc1` [HALAZONE]: the residual activity in data set [1] was determined as 84.35%; in data set [2], 97.95%.

On to `CC1(C)O[C@@H]2C[C@H]3[C@@H]4CCC5=CC(=O)CC[C@]5(C)[C@@]4(F)[C@@H](O)C[C@]3(C)[C@]2(C(=O)CCl)O1` [HALCINONIDE], for which the figures for the residual activity in data set [1] and in data set [2] were 103.5% and 88.26%, respectively.

As to `O=C(CCCN1CCC(O)(c2ccc(Cl)cc2)CC1)c1ccc(F)cc1` [HALOPERIDOL], the residual activity in data set [1] is 111.7%; in data set [2] it was 92.15%.

With `COc1ccc2c3c([nH]c2c1)C(C)=NCC3` [HARMALINE], the residual activity is recorded as 115.9% in data set [1] and 92.56% in data set [2].

Take `CC1=NCCc2c1[nH]c1cc(O)ccc21.Cl` [HARMALOL HYDROCHLORIDE]: the residual activity is 106.1% in data set [1] and 84.87% in data set [2].

For `Cc1nccc2c1[nH]c1ccccc12` [HARMAN], the results for the residual activity in data set [1] and in data set [2] were 99.56% and 81.51%, respectively.

`COc1ccc2c(c1)[nH]c1c(C)nccc12` [HARMINE]: the residual activity in data set [1] amounted to 101.7%; in data set [2], 105.3%.

On to `Cc1nccc2c1[nH]c1cc(O)ccc12.Cl` [HARMOL HYDROCHLORIDE], for which the residual activity in data set [1] is 124.7%; in data set [2] it was 91.2%.

As for `CC(=O)O[C@H]1CC[C@@]2(C)[C@@H](CC[C@@H]3[C@@H]2CC(=O)[C@]2(C)[C@@H]4[C@H](C[C@@H]32)O[C@]2(CC[C@@H](C)CO2)[C@H]4C)C1` [HECOGENIN ACETATE], the residual activity is 102% in data set [1] and 103.5% in data set [2].

For `C[C@@H]1CC[C@@]2(OC1)O[C@H]1C[C@H]3[C@@H]4CC[C@@]5(C)C[C@@H](O)CC[C@]5(C)[C@H]4CC(=O)[C@]3(C)[C@H]1[C@@H]2C` [HECOGENIN], the residual activity in data set [1] stood at 105.1%; in data set [2], 41.82%.
